The record followed here is ChEMBL document CHEMBL1135130, “Substituted tetrahydrofuroyl-1-phenylalanine derivatives as potent and specific VLA-4 antagonists” (Bioorg Med Chem Lett, 2002).

Data set [1] concerns the target T1, Integrin alpha-4/beta-1 (Homo sapiens, UniProt P05556+P13612). The experiment in a line: Inhibition of alpha4-beta1 (very late) antigen binding with VCAM-1 immunoglobulin plus 5% human plasma. Format: cell-free.
Data set [2] addresses T1, Integrin alpha-4/beta-1. Briefly: Inhibition of alpha4-beta1 (very late) antigen binding with VCAM-1 immunoglobulin. It is filed as protein-complex assay.
Data set [3] deals with Integrin alpha-4/beta-7 (Homo sapiens) (UniProt P13612+P26010). Briefly: Selectivity for alpha4-beta7 to that of alpha4-beta1. Format: protein-complex assay.
Data set [4] deals with T2, Integrin alpha-4/beta-7 (Homo sapiens, UniProt P13612+P26010).
T2 sequence (P13612 whole entry): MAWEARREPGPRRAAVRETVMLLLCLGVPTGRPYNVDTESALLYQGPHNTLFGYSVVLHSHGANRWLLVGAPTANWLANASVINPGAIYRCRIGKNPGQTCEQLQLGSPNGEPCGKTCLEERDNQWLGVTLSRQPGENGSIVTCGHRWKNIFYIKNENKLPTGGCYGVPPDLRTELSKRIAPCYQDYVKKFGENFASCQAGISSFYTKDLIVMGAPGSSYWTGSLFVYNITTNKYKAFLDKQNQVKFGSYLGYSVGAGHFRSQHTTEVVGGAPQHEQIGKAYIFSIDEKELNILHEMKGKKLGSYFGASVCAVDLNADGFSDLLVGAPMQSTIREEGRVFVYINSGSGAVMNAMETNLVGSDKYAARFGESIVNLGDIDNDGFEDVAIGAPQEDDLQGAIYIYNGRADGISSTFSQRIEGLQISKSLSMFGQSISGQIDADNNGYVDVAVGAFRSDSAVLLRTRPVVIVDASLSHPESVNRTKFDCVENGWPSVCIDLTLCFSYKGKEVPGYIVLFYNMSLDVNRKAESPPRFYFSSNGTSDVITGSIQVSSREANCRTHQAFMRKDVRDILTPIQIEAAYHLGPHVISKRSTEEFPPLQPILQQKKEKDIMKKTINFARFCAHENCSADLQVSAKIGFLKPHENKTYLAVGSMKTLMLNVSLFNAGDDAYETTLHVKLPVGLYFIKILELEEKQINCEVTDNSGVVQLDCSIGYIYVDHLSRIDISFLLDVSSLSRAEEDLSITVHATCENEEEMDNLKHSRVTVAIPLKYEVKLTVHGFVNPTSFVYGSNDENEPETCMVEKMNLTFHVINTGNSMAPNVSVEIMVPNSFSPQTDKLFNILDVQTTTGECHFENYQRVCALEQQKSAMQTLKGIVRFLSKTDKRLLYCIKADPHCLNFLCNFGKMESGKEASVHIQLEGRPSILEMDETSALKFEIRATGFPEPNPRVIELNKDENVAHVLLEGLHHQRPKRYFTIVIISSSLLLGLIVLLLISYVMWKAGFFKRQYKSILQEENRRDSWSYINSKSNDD
T2 sequence (P26010 whole entry): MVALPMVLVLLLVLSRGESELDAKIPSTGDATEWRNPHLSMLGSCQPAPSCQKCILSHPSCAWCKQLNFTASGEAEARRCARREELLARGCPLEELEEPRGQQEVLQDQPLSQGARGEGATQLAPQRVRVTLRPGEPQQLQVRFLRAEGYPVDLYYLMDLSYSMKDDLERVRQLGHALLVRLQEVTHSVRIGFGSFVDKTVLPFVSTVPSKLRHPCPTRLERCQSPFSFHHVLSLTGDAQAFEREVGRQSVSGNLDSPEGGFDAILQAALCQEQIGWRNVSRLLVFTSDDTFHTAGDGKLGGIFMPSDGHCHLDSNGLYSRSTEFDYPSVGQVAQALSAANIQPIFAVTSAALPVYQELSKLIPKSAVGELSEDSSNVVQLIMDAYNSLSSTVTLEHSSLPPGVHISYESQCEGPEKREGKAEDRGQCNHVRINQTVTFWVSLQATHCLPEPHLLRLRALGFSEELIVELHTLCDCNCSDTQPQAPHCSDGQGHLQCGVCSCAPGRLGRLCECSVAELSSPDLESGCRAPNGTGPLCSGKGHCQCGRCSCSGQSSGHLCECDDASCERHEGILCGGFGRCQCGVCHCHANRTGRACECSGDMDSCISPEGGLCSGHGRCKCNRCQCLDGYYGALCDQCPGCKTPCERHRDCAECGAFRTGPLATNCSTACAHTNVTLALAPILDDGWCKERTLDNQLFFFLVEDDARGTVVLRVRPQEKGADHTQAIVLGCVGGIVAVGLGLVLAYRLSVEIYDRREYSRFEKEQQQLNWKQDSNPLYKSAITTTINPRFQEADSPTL
The experiment in a line: Inhibition of alpha4-beta7 antigen with MAdCAM immunoglobulin. Format: protein-complex assay.

A short description of data set [5]: Oral bioavailability. It is filed as ADME, organism-based. The settings on record: eutheria, in vivo.
The nature of data set [6]: Plasma clearance determined. It is filed as ADME, organism-based. Particulars: read-out: Clp.
Data set [7] in a line: Selectivity for alpha4-beta7 over alpha4-beta1 integrins.
Data set [8] addresses T2, Integrin alpha-4/beta-7. The experiment in a line: Inhibition of alpha4-beta7 integrin binding to MAdCAM immunoglobulin. It is filed as protein-complex assay.

SMILES strings stand for the structures. pIC50: −log10 of the molar value.

T1 sequence (P05556 whole entry, one chain of several): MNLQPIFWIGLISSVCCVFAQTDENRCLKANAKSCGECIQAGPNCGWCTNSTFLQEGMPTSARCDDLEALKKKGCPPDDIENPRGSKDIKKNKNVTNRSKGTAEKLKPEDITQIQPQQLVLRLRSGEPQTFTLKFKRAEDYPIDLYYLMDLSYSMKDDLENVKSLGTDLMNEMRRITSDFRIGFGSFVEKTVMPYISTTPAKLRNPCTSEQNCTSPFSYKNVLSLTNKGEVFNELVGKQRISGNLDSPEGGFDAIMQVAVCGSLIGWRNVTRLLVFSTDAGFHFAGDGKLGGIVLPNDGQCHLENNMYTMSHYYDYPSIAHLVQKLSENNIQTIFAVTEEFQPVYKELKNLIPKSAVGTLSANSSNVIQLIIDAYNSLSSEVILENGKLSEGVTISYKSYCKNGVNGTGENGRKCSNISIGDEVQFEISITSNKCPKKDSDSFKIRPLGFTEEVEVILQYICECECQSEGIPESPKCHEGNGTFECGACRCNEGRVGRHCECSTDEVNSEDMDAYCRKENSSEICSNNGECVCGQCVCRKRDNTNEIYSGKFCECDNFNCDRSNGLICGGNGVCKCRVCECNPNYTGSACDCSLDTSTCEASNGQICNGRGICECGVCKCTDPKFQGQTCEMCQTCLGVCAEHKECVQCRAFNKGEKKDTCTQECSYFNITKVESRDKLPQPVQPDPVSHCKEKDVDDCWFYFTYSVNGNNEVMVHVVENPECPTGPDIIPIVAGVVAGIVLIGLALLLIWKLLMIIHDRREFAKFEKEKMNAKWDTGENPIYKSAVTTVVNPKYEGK

As usually defined, the pIC50 is −log10 of the IC50, conventionally taken in molar units. As for `COc1ccccc1-c1ccc(C[C@H](NC(=O)[C@@]2(c3ccc(Cl)cc3)CCCO2)C(=O)O)cc1`, the values for the pIC50 on Integrin alpha-4/beta-1 [1], at Integrin alpha-4/beta-1 [2] and at Integrin alpha-4/beta-7 [4] were 7.34, 8.39 and 6.56, respectively. Moreover, in data set [3], the Ratio was found to be 67.
As for `CCCC[C@]1(C(=O)N[C@@H](Cc2ccc(-c3c(OC)cccc3OC)cc2)C(=O)O)CCCO1`, the values for the negative logarithm of the IC50 (pIC50) at Integrin alpha-4/beta-1 [1], on Integrin alpha-4/beta-1 [2] and against Integrin alpha-4/beta-7 [4] were 8.84, 9.32 and 7.86, respectively. In data set [3], the Ratio came to 29.
As for `COc1ccccc1-c1ccc(C[C@H](NC(=O)[C@@]2(C)CCCO2)C(=O)O)cc1`, the pIC50 at Integrin alpha-4/beta-1 [1] is 7.22; on Integrin alpha-4/beta-1 [2], 8.41; on Integrin alpha-4/beta-7 [4] it was 7.34. Further, the Ratio in data set [3] was determined as 12.
Turning to `COc1ccccc1-c1ccc(C[C@H](NC(=O)[C@@]2(c3ccc(C)c(C)c3)CCCO2)C(=O)O)cc1`, the figures for the pIC50 at Integrin alpha-4/beta-1 [1], on Integrin alpha-4/beta-1 [2] and against Integrin alpha-4/beta-7 [4] were 6.46, 8.21 and 6.43, respectively. In addition, the Ratio in data set [3] is 60.
As usually defined, the bioavailability is dose-corrected exposure relative to a reference, in per cent. For the compound `COc1cccc(OC)c1-c1ccc(C[C@H](NC(=O)[C@@]2(C)CCCO2)C(=O)O)cc1`, the results for the pIC50 at Integrin alpha-4/beta-1 [1], on Integrin alpha-4/beta-1 [2] and against Integrin alpha-4/beta-7 [4] were 8.44, 9.47 and 8.15, respectively. Moreover, in data set [5], the bioavailability turned out to be 51%. In addition, the Ratio in data set [3] was 21. The clearance in data set [6] stood at 2.9 mL/min/kg.
On to `COc1cccc(OC)c1-c1ccc(C[C@H](NC(=O)[C@@]2(CCCO)CCCO2)C(=O)O)cc1`, for which the pIC50 on Integrin alpha-4/beta-1 [1] was 8.47; at Integrin alpha-4/beta-1 [2], 8.67; at Integrin alpha-4/beta-7 [4] it was 7.45. Besides, the Ratio in data set [3] is 17.
`COc1cccc(OC)c1-c1ccc(C[C@H](NC(=O)[C@@]2(c3nc4ccccc4o3)CCCO2)C(=O)O)cc1`: the pIC50 on Integrin alpha-4/beta-1 [1] was 8.62; on Integrin alpha-4/beta-1 [2], 9.38; on Integrin alpha-4/beta-7 [4] it was 6.42. For the same compound, in data set [3], the Ratio was 897.
Take `COc1cccc(OC)c1-c1ccc(C[C@H](NC(=O)[C@@]2(CCN(C)C)CCCO2)C(=O)O)cc1`: the pIC50 at Integrin alpha-4/beta-1 [1] was 7.71; at Integrin alpha-4/beta-1 [2] it was 7.81; on Integrin alpha-4/beta-7 [4], 7.10. For the same compound, the Ratio in data set [3] is 5.
Take `COCCC[C@]1(C(=O)N[C@@H](Cc2ccc(-c3c(OC)cccc3OC)cc2)C(=O)O)CCCO1`: the figures for the pIC50 at Integrin alpha-4/beta-1 [1], at Integrin alpha-4/beta-1 [2] and at Integrin alpha-4/beta-7 [4] were 9.21, 9.46 and 8.11, respectively. For the same compound, the bioavailability in data set [5] was found to be 1.9%. For the same compound, the Ratio in data set [3] was 22. For the same compound, in data set [6], the clearance stood at 81.8 mL/min/kg.
Take `COc1ccccc1-c1ccc(C[C@H](NC(=O)[C@@]2(CC(=O)N3CCOCC3)CCCO2)C(=O)O)cc1`: in data set [7], the Ratio worked out at 11. Besides, the pIC50 is 7.64 on Integrin alpha-4/beta-1 [2] and 7.96 at Integrin alpha-4/beta-7 [8].
